According to paper PMC10408683, “Dual Blockade of EP2 and EP4 Signaling is Required for Optimal Immune Activation and Antitumor Activity Against Prostaglandin-Expressing Tumors” (Cancer Research Communications, 2023):

Assays:
Format in all cases: cell-based
EP4 [1] = target: T1, EP4 (Homo sapiens, UniProt P35408); test: calcium flux antagonism of PGE2 in HEK293 cells stably expressing EP4 coupled through a promiscuous G protein
T1 construct: gene PTGER4

EP2 = target: T2, EP2 (Homo sapiens, UniProt P43116); test: calcium flux antagonism of PGE2 in HEK293 cells stably expressing EP2 coupled through a promiscuous G protein
T2 construct: gene PTGER2

EP4 [2] = target: T1, EP4; test: calcium flux assay in HEK293-based cells stably expressing human EP4

T1 sequence (P35408 whole entry): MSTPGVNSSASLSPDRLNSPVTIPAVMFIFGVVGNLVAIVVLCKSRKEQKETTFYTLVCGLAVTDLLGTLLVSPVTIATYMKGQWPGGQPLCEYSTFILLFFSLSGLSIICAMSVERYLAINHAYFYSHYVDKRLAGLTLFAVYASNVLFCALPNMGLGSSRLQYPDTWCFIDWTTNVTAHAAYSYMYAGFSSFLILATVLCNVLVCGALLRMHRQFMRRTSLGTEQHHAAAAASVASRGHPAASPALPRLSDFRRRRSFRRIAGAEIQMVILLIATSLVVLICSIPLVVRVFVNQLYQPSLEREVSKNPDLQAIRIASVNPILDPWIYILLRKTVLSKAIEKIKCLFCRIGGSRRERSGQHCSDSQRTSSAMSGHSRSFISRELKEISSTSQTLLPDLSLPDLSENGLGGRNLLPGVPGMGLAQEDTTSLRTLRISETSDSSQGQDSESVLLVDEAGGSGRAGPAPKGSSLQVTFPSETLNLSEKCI
T2 sequence (P43116 whole entry): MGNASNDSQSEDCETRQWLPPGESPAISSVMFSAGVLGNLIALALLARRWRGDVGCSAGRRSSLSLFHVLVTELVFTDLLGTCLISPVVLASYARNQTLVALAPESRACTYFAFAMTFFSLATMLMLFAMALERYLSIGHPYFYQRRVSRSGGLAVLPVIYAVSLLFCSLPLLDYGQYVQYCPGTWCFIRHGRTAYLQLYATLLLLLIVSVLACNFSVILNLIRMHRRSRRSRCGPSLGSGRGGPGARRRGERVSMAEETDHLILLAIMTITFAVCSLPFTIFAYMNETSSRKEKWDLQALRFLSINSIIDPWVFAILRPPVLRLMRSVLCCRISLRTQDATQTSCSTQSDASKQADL

IC50 (EP4 [1]) [nM]	IC50 (EP2) [nM]	IC50 (EP4 [2]) [nM]	Substance
3.24	17.2	–	TPST-1495
–	–	0.4	TPST-7131
